Test results reported in patent US8852556B2, “Animal model for evaluating vasomotor response in vivo” (Janssen Research & Development LLC, priority 2008, dated 2014).

Key:
[1] = tested on: central ear artery of a rabbit; assay: Rabbit central ear artery (CEA) vasomotor response, lumen diameter and area by ultrasonic imaging; assay type: in vivo; conditions: for CEA lumen area after norepinephrine and acetylcholine (acetylcholine-induced vasodilation response) / CEA lumen diameter after norepinephrine and acetylcholine (acetylcholine-induced vasodilation response): norepinephrine-preconstricted CEA; for CEA lumen area after norepinephrine and acetylcholine (acetylcholine-induced vasodilation response): vehicle group 0.6 mm^2; for CEA lumen diameter after norepinephrine and acetylcholine (acetylcholine-induced vasodilation response): vehicle group 0.8 mm
Procedure: A group of six rabbits was anesthetized with a mixture of ketamine (50 mg/kg)/xylazine ([…]) administered intramuscularly and placed on a warming pad to maintain body temperature. Rabbit ear pinnae were shaved and depilitated using an over-the-counter depilatory agent. A segment of about 2 cm of the dorsal surface over the CEA on the right ear was coated with warmed ultrasonic gel. The baseline diameter and area of the rabbit's CEA were evaluated using a 23.5 MHz ultrasonic probe (model RMV 708). The images were recorded on a VISUALSONICS VEVO 600 system where the CEA lumen diameters and areas were subsequently measured. The vessel lumen diameter and area were expressed as mean and standard error of the mean (SEM). Norepinephrine and acetylcholine were infused in the contralateral left ear vein through a 27-gauge butterfly needle infusion set connected to an infusion pump. Images were obtained at about 5 minute intervals throughout the infusion periods.
To confirm that acetylcholine-induced vasodilation was NO-dependent, a second group of six rabbits was dosed with either the nitric oxide synthase inhibitor L-NAME (400 μg/mL) mixed in TANG® flavored drinking water (N=3) or TANG® flavored drinking water alone (N=3) for 5 consecutive days. L-NAME, N(G)-nitro-L-arginine-methyl ester, is an arginine derivative that blocks normal nitric oxide-dependent vasodilation. The rabbit CEA were then imaged on day 6. The rabbits were allowed to recover for about one week and then in crossover fashion each group of 3 was given the opposite treatment for 5 days and then imaged on day 6.
(§1) In another group, six adult New Zealand male rabbits (2.5-3.5 kg) were dosed orally (gavage with feeding tube) with the Imwitor/Cremophor/Water vehicle for 4 consecutive days during week 1. The vehicle (10% Imwitor, 20% Cremophor RH40 and 70% water, a light milky compound solution) was given in a total volume of 3 mL/kg per day. On day 4, three hours after oral dosing with vehicle or drug, the rabbits were anesthetized and measured for the vehicle's effect on CEA vessel lumen as described above. After week 1, the rabbits were allowed to recover for 3 days and were then orally dosed with a test compound such as torcetrapib or compound 2 at about 30 mg/kg for 4 consecutive days during week 2. On the 4th day of week 2, rabbit CEA diameter changes in response to test compounds were assessed with infusion of norepinephrine followed by acetylcholine as described above. Rabbits were again allowed to recover for an additional week to allow for drug elimination and were then subjected to daily vehicle dosing and CEA diameter changes in response to test compounds were assessed as described above.
(§2) A series of 5 images (approximately 5 minutes apart) of the CEA were taken and used for baseline lumen diameter (mm) and area (mm^2) measurements, respectively. The adrenergic agonist norepinephrine was slowly infused at about 28 μg per minute and maintained for the duration of the procedure. An infusion of acetylcholine was administered in escalating doses at about 10, 17, 30 and 56 μg/min, each for 15 minutes, in conjunction with the infusion of norepinephrine. The images were collected several times during each infusion period of 15 minutes. After the final acetylcholine and concurrent norepinephrine infusion period, all infusions were terminated and the vessel was allowed to return to its original size. About two mL of blood were sampled from the non-imaged contralateral CEA immediately after the last measurement. All samples were collected into tubes containing EDTA and centrifuged at about 10,000 rpm for 6 minutes. Plasma was kept in −80° C. until analyzed for the concentration of the tested compounds. In addition, blood was taken from a naïve rabbit for generation of a standard drug concentration curve. […]

[2] = Plasma concentration of test compound after oral dosing in rabbits; assay type: in vivo, rabbit; conditions: 4 hours after the last dose; for concentration at 4 h: male, New Zealand, rabbit, plasma, rabbits, oral about 30 mg/kg for 4 days
Procedure: as §1
as §2, with “All samples were collected into tubes containing EDTA and centrifuged at about 10,000 rpm for 6 minutes.” left out, “compounds.” for “compounds. In addition, blood was taken from a naïve rabbit for generation of a standard drug concentration curve.”

[3] = tested on: systolic blood pressure; conditions: patients receiving torcetrapib; cited from earlier work
[4] = oral about 30 mg/kg for 4 days, compared to vehicle

concentration at 4 h [2] | CEA lumen area after norepinephrine and acetylcholine (acetylcholine-induced vasodilation response) ([1]; oral dose 30 mg/kg for 4 days) | CEA lumen diameter after norepinephrine and acetylcholine (acetylcholine-induced vasodilation response) ([1]; oral dose 30 mg/kg for 4 days) | Compound | effect on acetylcholine-induced vasodilation in norepinephrine-preconstricted CEA [1, 4] | other results
 |  |  | COC(=O)[C@@H](N)CCCNC(=N)N[N+](=O)[O-] [L-NAME, N(G)-nitro-L-arginine-methyl ester] |  | effect of L-NAME on acetylcholine-induced vasodilation in norepinephrine-preconstricted CEA ([1]; L-NAME 400 μg/mL in drinking water for 5 days, imaged day 6): inhibits this acetylcholine-induced vasodilation
2580 ± 670 nM | ~0.6 mm^2 | about 0.8 mm | O[C@@H](CN1c2cccc(-c3cccc(OC(F)(F)F)c3)c2CC[C@@H]1c1cccc(OC(F)(F)C(F)F)c1)C(F)(F)F [Compound 2, 1,1,1-Trifluoro-3-[2-{3-[(1,1,2,2-tetrafluoroethyl)oxy]phenyl}-5-{3-[(trifluoromethyl)oxy]phenyl}-3,4-dihydroquinolin-1(2H)-yl]propan-2-ol] | does not affect | plasma concentration of compound 2 relative to torcetrapib ([2]; same dose and regimen): approximately 2.5 fold
~1010 nM | 0.2 mm^2 | about 0.45 mm | CCOC(=O)N1c2ccc(C(F)(F)F)cc2[C@@H](N(Cc2cc(C(F)(F)F)cc(C(F)(F)F)c2)C(=O)OC)C[C@H]1CC [torcetrapib, ethyl (2R,4S)-4-[[3,5-bis(trifluoromethyl)benzyl](methoxycarbonyl)amino]-2-ethyl-6-(trifluoromethyl)-3,4-dihydroquinoline-1(2H)-carboxylate] | inhibits the acetylcholine-induced vasodilation | effect on baseline CEA lumen diameter and area (basal vascular tone) [1, 4]: caused a measurable baseline vasoconstriction; baseline CEA lumen diameter ([1]; oral dose 30 mg/kg for 4 days, prior to norepinephrine or acetylcholine, anesthetized rabbits, vehicle group 0.85 mm): about 0.55 mm; baseline CEA lumen area ([1]; oral dose 30 mg/kg for 4 days, prior to norepinephrine or acetylcholine, vehicle group 0.65 mm^2): about 0.3 mm^2; systolic blood pressure in patients [3]: higher systolic blood pressure
 |  |  | NC[C@H](O)c1ccc(O)c(O)c1 [norepinephrine] |  | CEA lumen area during norepinephrine infusion ([1]; norepinephrine infused at about 28 μg per minute, baseline about 0.6-0.7 mm^2): about 0.2 mm^2; CEA lumen diameter during norepinephrine infusion ([1]; norepinephrine infused at about 28 μg per minute, baseline about 0.8-0.9 mm): about 0.5 mm
